The source made the active and inactive calls. The rule behind the calls is not given here.
Experiments:
[1] = target: Dual specificity mitogen-activated protein kinase kinase 3 (Homo sapiens) (UniProt P46734); assay: MEK3 DiscoveRx kinase panel; settings: Compound concentration 1.0 uM
Rattus norvegicus = organism: Rattus norvegicus; assay: GABAA, Ro-15-1788, Hippocampus Eurofins-Panlabs radioligand binding assay; design: ligand concentration 1 nM; settings: Compound concentration 10.0 uM
[2] = target: Muscarinic acetylcholine receptor M1 (Homo sapiens) (UniProt P11229); assay: Muscarinic M1 Eurofins-Panlabs radioligand binding assay; settings: Compound concentration 10.0 uM
[3] = target: Non-receptor tyrosine-protein kinase TYK2 (Homo sapiens) (UniProt P29597); assay: TYK2(JH1domain-catalytic) DiscoveRx kinase panel; settings: Compound concentration 1.0 uM
[4] = target: Activated CDC42 kinase 1 (Homo sapiens) (UniProt Q07912); assay: TNK2 DiscoveRx kinase panel; settings: Compound concentration 1.0 uM
Chain of Activated CDC42 kinase 1 (Homo sapiens) (Q07912 whole entry, looked up): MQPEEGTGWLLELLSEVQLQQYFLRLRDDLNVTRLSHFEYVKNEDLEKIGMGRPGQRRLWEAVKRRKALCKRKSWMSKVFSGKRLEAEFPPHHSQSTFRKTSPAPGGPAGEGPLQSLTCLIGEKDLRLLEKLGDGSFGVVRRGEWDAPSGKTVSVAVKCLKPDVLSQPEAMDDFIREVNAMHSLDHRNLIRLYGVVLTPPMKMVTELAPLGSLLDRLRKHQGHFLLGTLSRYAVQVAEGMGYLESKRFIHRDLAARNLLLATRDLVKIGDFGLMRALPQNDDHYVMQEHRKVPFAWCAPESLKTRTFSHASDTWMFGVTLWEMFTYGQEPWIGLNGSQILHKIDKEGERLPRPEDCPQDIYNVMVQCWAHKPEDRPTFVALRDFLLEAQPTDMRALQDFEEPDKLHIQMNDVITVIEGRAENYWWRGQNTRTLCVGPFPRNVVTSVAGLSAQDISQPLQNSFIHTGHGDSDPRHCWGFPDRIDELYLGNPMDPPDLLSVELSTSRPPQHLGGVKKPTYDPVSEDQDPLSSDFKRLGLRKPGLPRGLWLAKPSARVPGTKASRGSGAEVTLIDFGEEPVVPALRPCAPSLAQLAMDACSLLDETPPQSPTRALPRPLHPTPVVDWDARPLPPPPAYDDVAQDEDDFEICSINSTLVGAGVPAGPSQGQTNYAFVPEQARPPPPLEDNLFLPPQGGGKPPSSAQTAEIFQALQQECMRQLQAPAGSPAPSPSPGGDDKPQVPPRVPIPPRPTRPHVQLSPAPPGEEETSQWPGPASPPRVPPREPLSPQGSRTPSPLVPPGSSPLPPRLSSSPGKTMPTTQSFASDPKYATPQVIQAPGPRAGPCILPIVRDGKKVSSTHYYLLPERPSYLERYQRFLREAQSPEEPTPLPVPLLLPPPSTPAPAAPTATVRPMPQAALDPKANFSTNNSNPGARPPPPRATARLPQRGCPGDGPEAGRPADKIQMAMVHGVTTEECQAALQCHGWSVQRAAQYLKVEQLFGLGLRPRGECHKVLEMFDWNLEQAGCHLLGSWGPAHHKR

[5] = target: Cyclin-dependent kinase-like 3 (Homo sapiens) (UniProt Q8IVW4); assay: CDKL3 DiscoveRx kinase panel; settings: Compound concentration 1.0 uM
[6] = target: Activin receptor type-2B (Homo sapiens) (UniProt Q13705); assay: ACVR2B DiscoveRx kinase panel; settings: Compound concentration 1.0 uM
[7] = target: Dual specificity mitogen-activated protein kinase kinase 4 (Homo sapiens) (UniProt P45985); assay: MEK4 DiscoveRx kinase panel; settings: Compound concentration 1.0 uM
[8] = target: Ephrin type-B receptor 1 (Homo sapiens) (UniProt P54762); assay: EPHB1 DiscoveRx kinase panel; settings: Compound concentration 1.0 uM
[9] = target: 5-hydroxytryptamine receptor 5A (Homo sapiens) (UniProt P47898); settings: Compound concentration 10.0 uM
[10] = target: Maternal embryonic leucine zipper kinase (Homo sapiens) (UniProt Q14680); assay: MELK DiscoveRx kinase panel; settings: Compound concentration 1.0 uM
[11] = target: Serine/threonine-protein kinase PLK4 (Homo sapiens) (UniProt O00444); assay: PLK4 DiscoveRx kinase panel; settings: Compound concentration 1.0 uM
Chain of Serine/threonine-protein kinase PLK4 (Homo sapiens) (O00444 whole entry): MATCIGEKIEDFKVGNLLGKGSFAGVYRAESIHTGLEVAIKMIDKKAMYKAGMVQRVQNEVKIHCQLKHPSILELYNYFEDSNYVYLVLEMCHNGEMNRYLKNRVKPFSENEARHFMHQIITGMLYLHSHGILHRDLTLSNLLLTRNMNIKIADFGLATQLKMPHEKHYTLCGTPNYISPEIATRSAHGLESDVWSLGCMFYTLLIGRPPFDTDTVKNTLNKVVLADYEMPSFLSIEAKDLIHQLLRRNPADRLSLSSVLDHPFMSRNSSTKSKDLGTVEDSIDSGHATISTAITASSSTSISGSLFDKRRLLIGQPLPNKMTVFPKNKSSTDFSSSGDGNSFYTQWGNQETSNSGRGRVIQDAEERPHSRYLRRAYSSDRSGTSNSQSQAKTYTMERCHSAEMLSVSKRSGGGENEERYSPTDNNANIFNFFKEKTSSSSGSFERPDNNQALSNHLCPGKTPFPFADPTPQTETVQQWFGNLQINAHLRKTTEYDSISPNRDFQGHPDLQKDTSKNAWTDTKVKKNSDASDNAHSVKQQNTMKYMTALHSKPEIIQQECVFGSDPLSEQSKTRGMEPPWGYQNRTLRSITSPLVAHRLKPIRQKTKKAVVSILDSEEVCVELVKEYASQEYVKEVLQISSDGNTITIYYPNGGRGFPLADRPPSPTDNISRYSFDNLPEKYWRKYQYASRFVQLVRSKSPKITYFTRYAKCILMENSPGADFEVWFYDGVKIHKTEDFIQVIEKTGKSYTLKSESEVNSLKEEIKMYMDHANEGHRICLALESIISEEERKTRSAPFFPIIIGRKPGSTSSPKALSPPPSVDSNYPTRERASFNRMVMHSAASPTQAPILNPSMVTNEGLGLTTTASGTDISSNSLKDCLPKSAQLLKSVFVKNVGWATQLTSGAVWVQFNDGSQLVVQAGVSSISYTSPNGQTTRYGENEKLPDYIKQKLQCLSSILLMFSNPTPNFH

[12] = target: Wee1-like protein kinase 2 (Homo sapiens) (UniProt P0C1S8); assay: WEE2 DiscoveRx kinase panel; settings: Compound concentration 1.0 uM
[13] = target: Sodium-dependent dopamine transporter (Homo sapiens, UniProt Q01959); settings: Compound concentration 10.0 uM
[14] = target: Serine/threonine-protein kinase MAK (Homo sapiens) (UniProt P20794); assay: MAK DiscoveRx kinase panel; settings: Compound concentration 1.0 uM
[15] = target: Glycogen synthase kinase-3 beta (Homo sapiens) (UniProt P49841); assay: GSK3B DiscoveRx kinase panel; settings: Compound concentration 1.0 uM
[16] = target: T1, Alpha-2A adrenergic receptor (Homo sapiens) (UniProt P08913); settings: Compound concentration 10.0 uM
T1 sequence (whole entry): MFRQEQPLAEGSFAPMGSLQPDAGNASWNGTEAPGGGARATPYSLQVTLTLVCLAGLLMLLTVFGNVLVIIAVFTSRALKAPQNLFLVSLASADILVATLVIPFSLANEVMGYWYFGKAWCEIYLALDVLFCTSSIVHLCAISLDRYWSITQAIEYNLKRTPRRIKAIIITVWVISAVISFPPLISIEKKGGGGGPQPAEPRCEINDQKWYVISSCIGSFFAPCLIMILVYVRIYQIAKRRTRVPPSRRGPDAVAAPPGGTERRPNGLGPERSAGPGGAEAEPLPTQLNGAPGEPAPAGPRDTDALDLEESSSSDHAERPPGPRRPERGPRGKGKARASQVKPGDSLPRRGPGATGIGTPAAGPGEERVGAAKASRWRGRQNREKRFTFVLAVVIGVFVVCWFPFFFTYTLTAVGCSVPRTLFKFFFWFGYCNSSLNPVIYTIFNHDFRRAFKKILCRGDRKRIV

[17] = target: Serine/threonine-protein kinase ICK (Homo sapiens) (UniProt Q9UPZ9); assay: ICK DiscoveRx kinase panel; settings: Compound concentration 1.0 uM
[18] = target: Tyrosine-protein kinase ABL1 (Homo sapiens) (UniProt P00519); assay: ABL1-phosphorylated DiscoveRx kinase panel; settings: Compound concentration 1.0 uM
[19] = target: T2, Mitotic checkpoint serine/threonine-protein kinase BUB1 (Homo sapiens, UniProt O43683); assay: ePCA binding competition (equilibrium binding assay)
T2 sequence (O43683 whole entry): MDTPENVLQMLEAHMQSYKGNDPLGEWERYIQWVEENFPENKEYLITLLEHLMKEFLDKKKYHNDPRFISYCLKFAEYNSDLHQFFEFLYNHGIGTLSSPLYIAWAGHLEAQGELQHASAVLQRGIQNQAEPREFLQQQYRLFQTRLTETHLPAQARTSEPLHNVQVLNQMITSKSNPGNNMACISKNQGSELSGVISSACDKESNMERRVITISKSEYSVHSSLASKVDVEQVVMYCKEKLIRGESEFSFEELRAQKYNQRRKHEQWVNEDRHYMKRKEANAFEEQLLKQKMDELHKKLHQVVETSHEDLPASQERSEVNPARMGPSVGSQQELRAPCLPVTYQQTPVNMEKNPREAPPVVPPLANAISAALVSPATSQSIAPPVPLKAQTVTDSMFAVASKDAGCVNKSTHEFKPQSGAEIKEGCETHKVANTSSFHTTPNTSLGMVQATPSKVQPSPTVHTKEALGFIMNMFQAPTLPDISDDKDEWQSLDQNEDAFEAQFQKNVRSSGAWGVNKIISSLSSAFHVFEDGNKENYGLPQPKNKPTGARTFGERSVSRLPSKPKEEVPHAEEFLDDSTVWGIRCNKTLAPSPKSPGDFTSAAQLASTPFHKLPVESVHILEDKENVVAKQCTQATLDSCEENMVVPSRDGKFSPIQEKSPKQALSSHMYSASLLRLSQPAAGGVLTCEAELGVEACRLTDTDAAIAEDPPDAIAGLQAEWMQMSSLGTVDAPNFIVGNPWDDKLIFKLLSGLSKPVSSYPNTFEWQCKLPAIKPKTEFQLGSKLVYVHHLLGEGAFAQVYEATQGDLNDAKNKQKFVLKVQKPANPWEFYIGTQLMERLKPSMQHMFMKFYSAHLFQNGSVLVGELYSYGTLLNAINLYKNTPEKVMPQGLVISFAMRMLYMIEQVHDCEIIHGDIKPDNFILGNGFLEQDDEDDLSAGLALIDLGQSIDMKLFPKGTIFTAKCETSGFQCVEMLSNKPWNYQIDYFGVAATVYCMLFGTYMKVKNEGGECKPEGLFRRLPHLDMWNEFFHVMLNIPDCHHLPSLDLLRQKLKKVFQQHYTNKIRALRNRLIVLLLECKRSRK

[20] = target: T2, Mitotic checkpoint serine/threonine-protein kinase BUB1; assay: BUB1 biochemical assay (high ATP)
[21] = target: Tyrosine-protein kinase Fer (Homo sapiens) (UniProt P16591); assay: FER DiscoveRx kinase panel; settings: Compound concentration 1.0 uM
[22] = target: Death-associated protein kinase 3 (Homo sapiens) (UniProt O43293); assay: DAPK3 DiscoveRx kinase panel; settings: Compound concentration 1.0 uM
[23] = target: Serine/threonine-protein kinase B-raf (Homo sapiens) (UniProt P15056); assay: BRAF DiscoveRx kinase panel; settings: Compound concentration 1.0 uM
[24] = target: Atypical kinase COQ8A, mitochondrial (Homo sapiens) (UniProt Q8NI60); assay: ADCK3 DiscoveRx kinase panel; settings: Compound concentration 1.0 uM
[25] = target: Ribosomal protein S6 kinase alpha-6 (Homo sapiens) (UniProt Q9UK32); assay: RSK4(Kin.Dom.2-C-terminal) DiscoveRx kinase panel; settings: Compound concentration 1.0 uM
[26] = target: Serine/threonine-protein kinase MRCK gamma (Homo sapiens, UniProt Q6DT37); assay: DMPK2 DiscoveRx kinase panel
Chain of Serine/threonine-protein kinase MRCK gamma (Q6DT37 whole entry): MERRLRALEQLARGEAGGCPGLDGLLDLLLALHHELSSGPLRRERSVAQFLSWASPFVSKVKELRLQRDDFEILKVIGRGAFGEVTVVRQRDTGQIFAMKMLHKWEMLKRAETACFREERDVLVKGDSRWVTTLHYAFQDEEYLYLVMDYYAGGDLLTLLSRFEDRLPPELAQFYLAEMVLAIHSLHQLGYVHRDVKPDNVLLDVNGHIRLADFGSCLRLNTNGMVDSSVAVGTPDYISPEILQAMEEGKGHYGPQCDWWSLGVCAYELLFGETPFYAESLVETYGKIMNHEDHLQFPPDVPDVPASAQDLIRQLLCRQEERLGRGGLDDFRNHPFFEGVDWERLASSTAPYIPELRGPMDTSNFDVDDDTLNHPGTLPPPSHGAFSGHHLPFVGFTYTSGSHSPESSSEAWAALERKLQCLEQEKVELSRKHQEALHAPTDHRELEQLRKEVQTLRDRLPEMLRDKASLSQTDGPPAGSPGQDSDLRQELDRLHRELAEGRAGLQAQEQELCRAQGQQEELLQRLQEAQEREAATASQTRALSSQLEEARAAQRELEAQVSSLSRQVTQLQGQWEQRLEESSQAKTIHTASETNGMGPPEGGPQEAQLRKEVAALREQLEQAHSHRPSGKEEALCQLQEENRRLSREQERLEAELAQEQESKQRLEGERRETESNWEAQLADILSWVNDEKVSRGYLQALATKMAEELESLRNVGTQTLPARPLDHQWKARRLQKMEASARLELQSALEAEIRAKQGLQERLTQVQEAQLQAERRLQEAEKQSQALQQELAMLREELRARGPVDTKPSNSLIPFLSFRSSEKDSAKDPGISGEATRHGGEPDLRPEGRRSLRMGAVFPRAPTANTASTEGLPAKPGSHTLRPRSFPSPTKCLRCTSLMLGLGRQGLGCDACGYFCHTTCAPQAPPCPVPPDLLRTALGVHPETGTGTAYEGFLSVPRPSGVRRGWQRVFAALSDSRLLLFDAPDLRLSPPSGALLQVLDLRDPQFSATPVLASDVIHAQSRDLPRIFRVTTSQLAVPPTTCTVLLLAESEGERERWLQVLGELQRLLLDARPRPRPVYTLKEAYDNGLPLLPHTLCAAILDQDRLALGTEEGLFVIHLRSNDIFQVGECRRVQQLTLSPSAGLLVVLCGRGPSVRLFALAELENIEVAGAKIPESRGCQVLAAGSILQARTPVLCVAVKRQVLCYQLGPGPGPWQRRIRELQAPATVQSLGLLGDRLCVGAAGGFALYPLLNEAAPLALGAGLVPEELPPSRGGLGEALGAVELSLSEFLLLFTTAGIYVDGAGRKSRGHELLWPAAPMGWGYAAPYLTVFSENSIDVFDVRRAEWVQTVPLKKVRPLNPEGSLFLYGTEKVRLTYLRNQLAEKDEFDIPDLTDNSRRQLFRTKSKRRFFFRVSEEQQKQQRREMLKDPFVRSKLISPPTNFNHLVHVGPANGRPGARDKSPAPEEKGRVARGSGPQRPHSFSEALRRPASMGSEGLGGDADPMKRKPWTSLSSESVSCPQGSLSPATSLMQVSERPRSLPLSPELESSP

[27] = target: Peroxisome proliferator-activated receptor gamma (Homo sapiens) (UniProt P37231); assay: PPARgamma Eurofins-Panlabs radioligand binding assay; design: ligand concentration 5 nM; settings: Compound concentration 10.0 uM
[28] = target: RAC-beta serine/threonine-protein kinase (Homo sapiens) (UniProt P31751); assay: AKT2 DiscoveRx kinase panel; settings: Compound concentration 1.0 uM
[29] = target: Calcium/calmodulin-dependent protein kinase type II subunit gamma (Homo sapiens) (UniProt Q13555); assay: CAMK2G DiscoveRx kinase panel; settings: Compound concentration 1.0 uM
[30] = target: Serine/threonine-protein kinase haspin (Homo sapiens) (UniProt Q8TF76); assay: HASPIN DiscoveRx kinase panel; settings: Compound concentration 1.0 uM
[31] = target: Serine/threonine-protein kinase 35 (Homo sapiens) (UniProt Q8TDR2); assay: STK35 DiscoveRx kinase panel; settings: Compound concentration 1.0 uM
[32] = target: Tyrosine-protein kinase JAK2 (Homo sapiens) (UniProt O60674); assay: JAK2(JH1domain-catalytic) DiscoveRx kinase panel; settings: Compound concentration 1.0 uM
Bacteria = assay: Inhibition of Beta-Lactamase at 10 µM in the Eurofins-Panlabs enzyme assay (Eurofins_assay_126000); assay type: protein-complex assay; design: substrate with concentration; settings: Compound concentration 10.0 uM
[33] = target: Vascular endothelial growth factor receptor 3 (Homo sapiens) (UniProt P35916); assay: FLT4 DiscoveRx kinase panel; settings: Compound concentration 1.0 uM
[34] = target: T2, Mitotic checkpoint serine/threonine-protein kinase BUB1; assay: BUB1 surface plasmon resonance (SPR) assay
[35] = target: Microtubule-associated serine/threonine-protein kinase 1 (Homo sapiens) (UniProt Q9Y2H9); assay: MAST1 DiscoveRx kinase panel; settings: Compound concentration 1.0 uM
[36] = target: Serine/threonine-protein kinase D2 (Homo sapiens) (UniProt Q9BZL6); assay: PRKD2 DiscoveRx kinase panel; settings: Compound concentration 1.0 uM
[37] = target: Receptor-interacting serine/threonine-protein kinase 2 (Homo sapiens) (UniProt O43353); assay: RIPK2 DiscoveRx kinase panel; settings: Compound concentration 1.0 uM
[38] = target: Receptor tyrosine-protein kinase erbB-2 (Homo sapiens) (UniProt P04626); assay: ERBB2 DiscoveRx kinase panel; settings: Compound concentration 1.0 uM
[39] = target: Serine/threonine-protein kinase mTOR (Homo sapiens) (UniProt P42345); assay: MTOR DiscoveRx kinase panel; settings: Compound concentration 1.0 uM
[40] = target: Interleukin-1 receptor-associated kinase 4 (Homo sapiens) (UniProt Q9NWZ3); assay: IRAK4 DiscoveRx kinase panel; settings: Compound concentration 1.0 uM
[41] = target: Serine/threonine-protein kinase 26 (Homo sapiens) (UniProt Q9P289); assay: MST4 DiscoveRx kinase panel; settings: Compound concentration 1.0 uM
Chain of Serine/threonine-protein kinase 26 (Homo sapiens) (Q9P289 2-416 limits assumed): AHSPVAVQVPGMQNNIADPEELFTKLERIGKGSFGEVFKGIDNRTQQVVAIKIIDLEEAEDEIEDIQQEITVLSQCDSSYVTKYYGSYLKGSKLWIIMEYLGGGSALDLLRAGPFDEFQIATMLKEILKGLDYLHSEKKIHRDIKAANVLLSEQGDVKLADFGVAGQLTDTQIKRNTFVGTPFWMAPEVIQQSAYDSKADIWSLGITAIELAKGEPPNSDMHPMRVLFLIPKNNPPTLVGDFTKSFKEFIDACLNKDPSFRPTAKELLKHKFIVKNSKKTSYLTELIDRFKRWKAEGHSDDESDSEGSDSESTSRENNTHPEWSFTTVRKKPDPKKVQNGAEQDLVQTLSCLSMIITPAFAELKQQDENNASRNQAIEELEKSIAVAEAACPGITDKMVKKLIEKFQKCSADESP

Homo sapiens = organism: Homo sapiens; assay: Inhibition of Phosphodiesterase PDE4 at compound concentration of 10.0 uM in the Eurofins-Panlabs enzyme assay (Eurofins_assay_154000); assay type: protein assay; design: substrate with concentration 1.01 uM [3 H]cAMP + cAMP, incubation time 20 min, incubation temperature 25 C; settings: Compound concentration 10.0 uM

`COc1cnccc1Nc1nc(-c2nn(Cc3c(F)cc(OCCO)cc3F)c3ccccc23)ncc1OC` showed a residual activity [1] of 100%, an inhibition (Rattus norvegicus) of 22% and an inhibition [2] of 32%. The residual activity [3] was 100%, the residual activity [4] was 100% and the residual activity [5] was 89%. It also gave a residual activity [6] of 94%, a residual activity [7] of 90% and a residual activity [8] of 100%. For the same compound, the inhibition [9] was -6.97%, the residual activity [10] was 84% and the residual activity [11] was 100%. It also gave a residual activity [12] of 97%, an inhibition [13] of 60.2% and a residual activity [14] of 73%. It also gave a residual activity [15] of 100%, an inhibition [16] of 2% and a residual activity [17] of 84%. The residual activity [18] was 94%, the IC50 [19] was 1 nM (active) and the IC50 [20] was 1900 nM (not active). For the same compound, the residual activity [21] was 100%, the residual activity [22] was 84% and the residual activity [23] was 99%. It also gave a residual activity [24] of 98%, a residual activity [25] of 100% and a Kd [26] of 850 nM. It also gave a residual activity ([26]; Compound concentration 1.0 uM) of 22%, an inhibition [27] of -8% and a residual activity [28] of 88%. The residual activity [29] was 100%, the residual activity [30] was 100% and the residual activity [31] was 99%. For the same compound, the residual activity [32] was 100%, the inhibition (Bacteria) was 21% and the residual activity [33] was 82%. For the same compound, the Kd [34] was 2.1 nM (active), the residual activity [35] was 63% and the residual activity [36] was 100%. For the same compound, the residual activity [37] was 82%, the residual activity [38] was 100% and the residual activity [39] was 100%. The residual activity [40] was 100%, the residual activity [41] was 100% and the inhibition (Homo sapiens) was 52%.
